Test results as given in publication PMC11345830, “Exploration of Hydrazide-Based HDAC8 PROTACs for the Treatment of Hematological Malignancies and Solid Tumors” (Journal of Medicinal Chemistry, 2024).
Read-outs that look alike come from different tables or passages of the source.

Legend:
HDAC8 [1] = molecular target: T1, HDAC8 (Homo sapiens, UniProt Q9BY41); assay: HDAC8 degradation in Jurkat cells, Western blot; conditions: for inhibition at 0.1 µM / Dmax: Jurkat; for inhibition at 0.1 µM: read-out: Degradation (%) at 100 nM (HDAC8); for Dmax: read-out: Dmax (HDAC8 degradation); for DC50: read-out: DC50 (HDAC8 degradation)
T1 sequence (Q9BY41 1-377): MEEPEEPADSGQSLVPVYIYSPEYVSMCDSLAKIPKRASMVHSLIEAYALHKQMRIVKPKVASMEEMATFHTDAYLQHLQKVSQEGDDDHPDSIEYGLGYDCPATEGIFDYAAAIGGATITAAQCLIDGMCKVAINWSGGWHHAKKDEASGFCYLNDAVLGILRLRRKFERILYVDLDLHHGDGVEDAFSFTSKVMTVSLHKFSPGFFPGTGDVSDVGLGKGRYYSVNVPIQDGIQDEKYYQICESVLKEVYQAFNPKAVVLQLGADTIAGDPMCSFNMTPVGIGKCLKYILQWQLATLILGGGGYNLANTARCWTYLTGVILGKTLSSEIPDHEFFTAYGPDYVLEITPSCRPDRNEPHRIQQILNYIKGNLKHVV

Jurkat cells = assay: Cell viability MTS assay, Jurkat; assay type: cell-based; conditions: for IC50: Homo sapiens, Jurkat, 72 h, MTS assay, read-out: IC50 antiproliferative, Jurkat
Description: (§1) MTS assay was used to measure the cell viability. For single treatment, Jurkat, THP-1 and HEL (8000 cells/well), HCT116 and A549 (2000 cells/well) were seeded in 96-well plates in 100 μL complete medium. After overnight incubation, 50 μL of media containing various concentrations of compounds or the vehicle were added to each well. For cotreatment, cells were seeded in 96-well plates in 50 μL complete medium. After overnight incubation, 50 μL of Z-VAD-FMK, Nec-1, Fer-1, CQ, and other indicated compounds were added to each well. One hour later, 50 μL of media containing various concentrations of compounds were added to each well. After 72 h of treatment, 20 μL of CellTiter 96 AQueous One Solution reagent (Promega, Madison, USA) was added to each well according to manufacturer’s protocol. Plates were incubated at 37 °C for 1–2 h. The absorbance was determined at a wavelength of 490 nm using a Synergy H1 plate reader (Biotek, Winooski, VT, USA).

THP-1 cells = assay: Cell viability MTS assay, THP-1; assay type: cell-based; conditions: Homo sapiens, 72 h, read-out: IC50 antiproliferative, THP-1
Description: as §1

HCT116 cells = assay: Cell viability MTS assay, HCT116; assay type: cell-based; conditions: Homo sapiens, HCT-116, 72 h, read-out: IC50 antiproliferative, HCT116
Description: as §1

A549 cells = assay: Cell viability MTS assay, A549; assay type: cell-based; conditions: Homo sapiens, 72 h, read-out: IC50 antiproliferative, A549
Description: as §1

HDAC8 [2] = molecular target: T1, HDAC8; assay: In vitro HDAC8 deacetylase inhibition assay
Description: After a following incubation at 37 °C for 20 min, the fluorescence was measured on a Synergy H1 Platereader (BioTek, USA) with an excitation wavelength of 370 nm and an emission wavelength of 460 nm. Nonlinear regression was used for the determination of the IC50 of each compound.

HDAC8 [3] = molecular target: T1, HDAC8; set-up: endogenous in cells; host or cells: HCT116; method as in PMID 35759908; conditions: HCT116 cells; cited from earlier work

## CCCCCCNNC(=O)c1ccc(CNC(=O)CCCCNc2cccc3c2C(=O)N(C2CCC(=O)NC2=O)C3=O)cc1 (stereo not drawn) [Z2, 5-((2-(2,6-Dioxopiperidin-3-yl)-1,3-dioxoisoindolin-4-yl)amino)-N-(4-(2-hexylhydrazine-1-carbonyl)benzyl)pentanamide]
HDAC8 [1]; 6 h
  inhibition at 0.1 µM: 62 ± 2%

## CCCCCCNNC(=O)c1cccc(NCc2ccc(C(=O)N3CCC(c4ccc(NC5CCC(=O)NC5=O)cc4)CC3)cc2)c1 (stereo not drawn) [Z18, 3-((4-(4-(4-((2,6-Dioxopiperidin-3-yl)amino)phenyl)piperidine-1-carbonyl)benzyl)amino)-N′-hexylbenzohydrazide]
HDAC8 [1]; 6 h
  inhibition at 0.1 µM: 13 ± 4%

## CCCCCCNNC(=O)c1ccc(CNC(=O)CCCNc2cccc3c2C(=O)N(C2CCC(=O)NC2=O)C3=O)cc1 (stereo not drawn) [Z1, 4-((2-(2,6-Dioxopiperidin-3-yl)-1,3-dioxoisoindolin-4-yl)amino)-N-(4-(2-hexylhydrazine-1-carbonyl)benzyl)butanamide]
HDAC8 [1]; 6 h
  inhibition at 0.1 µM: 73 ± 1%

## CCCCCCNNC(=O)c1ccc(CNC(=O)CCC(=O)N[C@H](C(=O)N2C[C@H](O)C[C@H]2C(=O)NCc2ccc(-c3scnc3C)cc2)C(C)(C)C)cc1 [Z8, N^1-(4-(2-Hexylhydrazine-1-carbonyl)benzyl)-N^4-((S)-1-((2S,4R)-4-hydroxy-2-((4-(4-methylthiazol-5-yl)benzyl)carbamoyl)pyrrolidin-1-yl)-3,3-dimethyl-1-oxobutan-2-yl)succinimide]
HDAC8 [1]; 6 h
  inhibition at 0.1 µM: 20 ± 1%

## CCCCCCNNC(=O)c1ccc(CNC(=O)CCCCCCCCCCCNc2cccc3c2C(=O)N(C2CCC(=O)NC2=O)C3=O)cc1 (stereo not drawn) [Z7, 12-((2-(2,6-Dioxopiperidin-3-yl)-1,3-dioxoisoindolin-4-yl)amino)-N-(4-(2-Hexylhydrazine-1-carbonyl)benzyl)dodecanamide]
HDAC8 [1]; Jurkat cells, 100 nM, 6 h, Western blot, n.d = no degradation
  Degradation (%) at 100 nM (HDAC8): did not trigger visible degradation

## CCCCCCNNC(=O)c1ccc(CNC(=O)CCCCC(=O)N[C@H](C(=O)N2C[C@H](O)C[C@H]2C(=O)NCc2ccc(-c3scnc3C)cc2)C(C)(C)C)cc1 [Z9, N^1-(4-(2-Hexylhydrazine-1-carbonyl)benzyl)-N^6-((S)-1-((2S,4R)-4-hydroxy-2-((4-(4-methylthiazol-5-yl)benzyl)carbamoyl)pyrrolidin-1-yl)-3,3-dimethyl-1-oxobutan-2-yl)adipamide]
HDAC8 [1]; 6 h
  inhibition at 0.1 µM: 17 ± 8%

## CCCCCCNNC(=O)c1ccc(CNC(=O)CCCCCCCNc2cccc3c2C(=O)N(C2CCC(=O)NC2=O)C3=O)cc1 (stereo not drawn) [Z5, 8-((2-(2,6-Dioxopiperidin-3-yl)-1,3-dioxoisoindolin-4-yl)amino)-N-(4-(2-Hexylhydrazine-1-carbonyl)benzyl)octanamide]
HDAC8 [1]; 6 h
  inhibition at 0.1 µM: 43 ± 17%

## CCCCCCNNC(=O)c1ccc(CNC(=O)CCCCCCCCCCC(=O)N[C@H](C(=O)N2C[C@H](O)C[C@H]2C(=O)NCc2ccc(-c3scnc3C)cc2)C(C)(C)C)cc1 [Z13, N^1-(4-(2-Hexylhydrazine-1-carbonyl)benzyl)-N^12-((S)-1-((2S,4R)-4-hydroxy-2-((4-(4-methylthiazol-5-yl)benzyl)carbamoyl)pyrrolidin-1-yl)-3,3-dimethyl-1-oxobutan-2-yl)dodecanediamide]
HDAC8 [1]; 6 h
  inhibition at 0.1 µM: 65 ± 5%

## CCCCCCNNC(=O)c1ccc(CNC(=O)CCCCCNc2cccc3c2C(=O)N(C2CCC(=O)NC2=O)C3=O)cc1 (stereo not drawn) [Z3, 6-((2-(2,6-Dioxopiperidin-3-yl)-1,3-dioxoisoindolin-4-yl)amino)-N-(4-(2-hexylhydrazine-1-carbonyl)benzyl)hexanamide]
HDAC8 [1]; 6 h
  inhibition at 0.1 µM: 44 ± 13%

## CCCCCCNNC(=O)c1ccc(CNC(=O)CCCCCCCCCNc2cccc3c2C(=O)N(C2CCC(=O)NC2=O)C3=O)cc1 (stereo not drawn) [Z6, 10-((2-(2,6-Dioxopiperidin-3-yl)-1,3-dioxoisoindolin-4-yl)amino)-N-(4-(2-hexylhydrazine-1-carbonyl)benzyl)decanamide]
HDAC8 [1]; 6 h
  inhibition at 0.1 µM: 43 ± 3%

## COc1ccc(Cn2ccc3ccc(C(=O)NO)cc32)cc1 [PCI-34051]
Jurkat cells
  IC50: 4.5 ± 0.7 µM
Jurkat cells; Jurkat pretreated with 50 nM Z16 for 2 h, then 72 h, MTS
  decreased antiproliferative potency after Z16 pretreatment compared to single treatment: about 5 fold
THP-1 cells
  IC50: > 33.3 µM
HCT116 cells
  IC50: 21.9 ± 2.8 µM
A549 cells
  IC50: > 33.3 µM

## CCCCCCNNC(=O)c1ccc(CNC(=O)CN2CCC(c3ccc(NC(C)=O)cc3)CC2)cc1 [Compound 32, 2-(4-(4-Acetamidophenyl)piperidin-1-yl)-N-(4-(2-hexylhydrazine-1-carbonyl)benzyl)acetamide]
Jurkat cells
  IC50: 3 ± 0.3 µM
THP-1 cells
  IC50: 3.4 ± 0.6 µM
HCT116 cells
  IC50: 2.8 ± 0.3 µM
A549 cells
  IC50: 12 ± 1.6 µM
HDAC8 [2]
  IC50: 16.6 ± 2.8 µM
HDAC8 [1]; Jurkat cells, 6 h
  HDAC8 degradation by control compounds (in words): Neither NC-Z16 nor 32 induced HDAC8 degradation

## CCCCCCNNC(=O)c1ccc(CNC(=O)CCCCCCC(=O)N[C@H](C(=O)N2C[C@H](O)C[C@H]2C(=O)NCc2ccc(-c3scnc3C)cc2)C(C)(C)C)cc1 [Z10, N^1-(4-(2-Hexylhydrazine-1-carbonyl)benzyl)-N^8-((S)-1-((2S,4R)-4-hydroxy-2-((4-(4-methylthiazol-5-yl)benzyl)carbamoyl)pyrrolidin-1-yl)-3,3-dimethyl-1-oxobutan-2-yl)octanediamide]
HDAC8 [1]; 6 h
  inhibition at 0.1 µM: 14 ± 5%

## CCCCCCNNC(=O)c1ccc(CNC(=O)CCCCCCNc2cccc3c2C(=O)N(C2CCC(=O)NC2=O)C3=O)cc1 (stereo not drawn) [Z4, 7-((2-(2,6-Dioxopiperidin-3-yl)-1,3-dioxoisoindolin-4-yl)amino)-N-(4-(2-hexylhydrazine-1-carbonyl)benzyl)heptanamide]
HDAC8 [1]; 6 h
  inhibition at 0.1 µM: 90 ± 10%
HDAC8 [1]
  Dmax: 88%
HDAC8 [1]; Jurkat cells, 6 h
  DC50: 0.0167 µM

## CCCCCCNNC(=O)c1ccc(CNC(=O)CCCCCCCCC(=O)N[C@H](C(=O)N2C[C@H](O)C[C@H]2C(=O)NCc2ccc(-c3scnc3C)cc2)C(C)(C)C)cc1 [Z12, N^1-(4-(2-Hexylhydrazine-1-carbonyl)benzyl)-N^10-((S)-1-((2S,4R)-4-hydroxy-2-((4-(4-methylthiazol-5-yl)benzyl)carbamoyl)pyrrolidin-1-yl)-3,3-dimethyl-1-oxobutan-2-yl)decanediamide]
HDAC8 [1]; 6 h
  inhibition at 0.1 µM: 83 ± 2%
HDAC8 [1]
  Dmax: 93%
HDAC8 [1]; Jurkat cells, 6 h
  DC50: 0.0621 µM

## O=C(CCCCOc1cccc(CCNC(=O)c2cccc(C(=O)NO)c2)c1)NCCCCCCNc1cccc2c1C(=O)N(C1CCC(=O)NC1=O)C2=O (stereo not drawn) [PROTAC 2]
HDAC8 [3]
  DC50: 0.147 µM

## CCCCCCNNC(=O)c1ccc(CNC(=O)CCCCCCCC(=O)N[C@H](C(=O)N2C[C@H](O)C[C@H]2C(=O)NCc2ccc(-c3scnc3C)cc2)C(C)(C)C)cc1 [Z11, N^1-(4-(2-Hexylhydrazine-1-carbonyl)benzyl)-N^9-((S)-1-((2S,4R)-4-hydroxy-2-((4-(4-methylthiazol-5-yl)benzyl)carbamoyl)pyrrolidin-1-yl)-3,3-dimethyl-1-oxobutan-2-yl)nonanediamide]
HDAC8 [1]; 6 h
  inhibition at 0.1 µM: 48 ± 4%

## CCCCCCNNC(=O)c1ccc(CNCC2CCN(c3ccc4c(c3)C(=O)N(C3CCC(=O)NC3=O)C4=O)CC2)cc1 (stereo not drawn) [Z15, 4-((((1-(2-(2,6-Dioxopiperidin-3-yl)-1,3-dioxoisoindolin-5-yl)piperidin-4-yl)methyl)amino)methyl)-N′-hexylbenzohydrazide]
HDAC8 [1]; 6 h
  inhibition at 0.1 µM: 25 ± 2%

## CCCCCCNNC(=O)c1ccc(CNC(=O)C2CCN(c3ccc4c(c3)C(=O)N(C3CCC(=O)NC3=O)C4=O)CC2)cc1 (stereo not drawn) [Z14, 1-(2-(2,6-Dioxopiperidin-3-yl)-1,3-dioxoisoindolin-5-yl)-N-(4-(2-hexylhydrazine-1-carbonyl)benzyl)piperidine-4-carboxamide]
HDAC8 [1]; 6 h
  inhibition at 0.1 µM: 34 ± 3%

## Nc1cccc2c1C(=O)N(C1CCC(=O)NC1=O)C2=O (stereo not drawn) [Poma, pomalidomide]
Jurkat cells
  IC50: > 33.3 µM
THP-1 cells
  IC50: > 33.3 µM
HCT116 cells
  IC50: > 33.3 µM
A549 cells
  IC50: > 33.3 µM
